Converted amounts (≈) assume the structure as drawn.
What was measured:
Type in all cases: in vivo
[1] = test system: barnyard grass (Echinochloa crus-galli); assay: Pre-emergence application, herbicidal effect on barnyard grass (Table 1); design: key: 0: not damaged; 5: completely killed; details: 20 days after application, score 0-5
How it was run: (§1)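 Compounds, formulated as water-diluted wettable powder, were applied to the soil surface after sowing and covering the seeds in pots of about 10 cm. Effects were rated on a 0 (no damage) to 5 (complete kill) scale after 20 days of greenhouse growth.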

[2] = test system: large crabgrass (Digitaria sanguinalis); assay: Pre-emergence application, herbicidal effect on large crabgrass (Table 1); design: key: 0: not damaged; 5: completely killed; details: 20 days after application, score 0-5
How it was run: as §1

[3] = test system: radish; assay: Pre-emergence application, herbicidal effect on radish (Table 1); design: key: 0: not damaged; 5: completely killed; details: 20 days after application, score 0-5
How it was run: as §1

[4] = test system: redroot pigweed (Amaranthus retroflexus); assay: Pre-emergence application, herbicidal effect on redroot pigweed (Table 1); design: key: 0: not damaged; 5: completely killed; details: 20 days after application, score 0-5
How it was run: as §1

[5] = test system: common purslane (Portulaca oleracea); assay: Pre-emergence application, herbicidal effect on common purslane (Table 1); design: key: 0: not damaged; 5: completely killed; details: 20 days after application, score 0-5
How it was run: as §1

[6] = test system: common lambsquarter (Chenopodium album); assay: Pre-emergence application, herbicidal effect on common lambsquarter (Table 1); design: key: 0: not damaged; 5: completely killed; details: 20 days after application, score 0-5
How it was run: as §1

[7] = test system: rice; assay: Water application, phytotoxicity on rice (Table 2); design: key: 0: no effect; 1: very slightly affected; 2: slightly affected; 3: moderately affected; 4: considerably affected; 5: completely killed; details: 25 days, score 0-5
How it was run: (§2)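 Ratings on a 0–5 scale taken 25 days post-treatment for rice injury, barnyard grass, and naturally emerging monochoria, false pimpernel and toothcup. Compounds as wettable powder went onto waterlogged paddy soil holding rice seedlings transplanted at 3 leaves and barnyard grass seed.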

[8] = test system: carmine mite (Tetranychus telavius); assay: Lethal effect on carmine mite, leaf dipping (Table 3); details: foliar, 48 h
Protocol: A large number of carmine mite adult were made parasitic on leaves of potted kidney beans at a 2-leaves stage which had elapsed 10 days after sowing. The leaves of kidney bean on which carmine mites had been made parasitic were dipped for 1 minute in each aqueous solution of the present compounds of wettable powder type. Water was given to the leaves not to kill them, and after 48 hours the death and alive were observed microscopically to calculate the mortality. Values of LC50 were obtained from the mortality.

[9] = test system: rice stem borer (Chilo suppressalis); assay: Lethal effect on rice stem borer (Table 6); details: 50 % emulsifiable concentrate, 1000 fold dilute solution, 4 days after application
Description: Eggs just before hatch of the rice stem borer were applied in a ratio of 100/pot near the root of rice plants grown up into the tillering stage in an […] Wagner's pot. After eggs were hatched and the larvae entered into stems of rice plants, an 1000 fold dilute solution of each 50 % emulsifiable concentrates of the present compounds was applied by means of a turn table.

[10] = test system: nematode; assay: Effect on nematode (Table 7); design: tested at 500 ppm; details: 500 p.p.m., 24 hours
Protocol: 0.5 ml. of a nematode-containing aqueous solution separated from food according to Baermann's method was placed in a test tube with ground stopper containing 0.5 ml. of an aqueous dilute solution of each emulsifiable concentrates of the present compounds. The concentration of the active ingredient in the mixture was adjusted to 500 p.p.m. After 24 hours, the death and alive were observed microscopically to calculate the mortality.

[11] = test system: barnyard grass (Echinochloa crus-galli); assay: Water application, herbicidal effect on barnyard grass (Table 2); design: key: 0: not damaged; 5: completely killed; details: 25 days, score 0-5
How it was run: as §2

[12] = test system: broad-leaved weeds, e.g., monochoria, false pimpernel and toothcup; assay: Water application, herbicidal effect on broad-leaved weeds (Table 2); design: key: 0: not damaged; 5: completely killed; details: 25 days, score 0-5
How it was run: as §2

[13] = test system: broad-leaved weeds, e.g., monochoria, false pimpernel and toothcup; assay: as above; design: key: 0: no effect; 1: very slightly affected; 2: slightly affected; 3: moderately affected; 4: considerably affected; 5: completely killed; details: 10 g/a, 25 days, score 0-5
Description: Wagner pots of 14 cm. in diameter, which had been packed with 1.5 kg. of paddy field soil, were brought into the state of paddy fields. To the pots were transplanted rice seedlings at the 3-leave stage. Further, seeds of barnyard grass (Echinochloa crus-galli) were sowed in the pots and required amounts of test compounds were applied to the soil under water lodged condition. 25 days after application, the degrees of herbicidal activity and phytotoxity were investigated on above-mentioned plants which had been transplanted and sowed, and on broad-leaved weeds, e.g., monochoria (Monochoria viaginalis Presl.), false pimpernel (Linderna pyxidaria) and toothcup (Rotala indica Koehue), which had been spontaneously germinated. The test compounds were used in the form of wettable powder. The herbicidal effects and the phytotoxity were evaluated as follows by the numerals ranging from 0 to 5.

Row | SMILES | Herbicidal effect, barnyard grass ([1]; 10 g./a.) | Herbicidal effect, barnyard grass ([1]; 20 g./a.) | Herbicidal effect, barnyard grass ([1]; 40 g./a.) | Herbicidal effect, large crabgrass ([2]; 10 g./a.) | Herbicidal effect, large crabgrass ([2]; 20 g./a.) | Herbicidal effect, large crabgrass ([2]; 40 g./a.) | Herbicidal effect, radish ([3]; 10 g./a.) | Herbicidal effect, radish ([3]; 20 g./a.) | Herbicidal effect, radish ([3]; 40 g./a.) | Herbicidal effect, redroot pigweed ([4]; 10 g./a.) | Herbicidal effect, redroot pigweed ([4]; 20 g./a.) | Herbicidal effect, redroot pigweed ([4]; 40 g./a.) | Herbicidal effect, common purslane ([5]; 10 g./a.) | Herbicidal effect, common purslane ([5]; 20 g./a.) | Herbicidal effect, common purslane ([5]; 40 g./a.) | Herbicidal effect, common lambsquarter ([6]; 10 g./a.) | Herbicidal effect, common lambsquarter ([6]; 20 g./a.) | Herbicidal effect, common lambsquarter ([6]; 40 g./a.) | Phytotoxicity on rice ([7]; 10 g/a) | Phytotoxicity on rice ([7]; 20 g/a) | other results
1 | CCCCSP(=O)(OCC)SCC(=O)N1CCCCC1C (stereo not shown) [Compound 4] | 4 | 5 | 5 | 5 | 5 | 5 | 0 | 0 | 0 | 4 | 4 | 4 | 4 | 4 | 5 | 4 | 4 | 5 | 0 | 0 | Phytotoxicity on rice ([7]; 40 g/a): 0; LC50 [8]: 11.4 µg/mL (≈ 32.2 µM); Mortality [9]: 97.6%; Mortality [10]: 100%; Herbicidal effects, barnyard grass ([11]; 10 g/a): 5; Herbicidal effects, barnyard grass ([11]; 20 g/a): 5; Herbicidal effects, barnyard grass ([11]; 40 g/a): 5; Herbicidal effects, broad-leaved weeds ([12]; 20 g/a): 5; Herbicidal effects, broad-leaved weeds ([12]; 40 g/a): 5; Herbicidal effects, broad-leaved weeds [13]: 4
2 | C=C(Cl)CSP(=O)(OCC)SCC(=O)N1CCCCC1C (stereo not shown) [Compound 9] | 5 | 5 | 5 | 5 | 5 | 5 | 0 | 0 | 0 | 4 | 5 | 5 | 5 | 5 | 5 | 4 | 5 | 5 | 0 | 0 | Phytotoxicity on rice ([7]; 40 g/a): 0; Mortality [9]: 100%; Mortality [10]: 100%; Herbicidal effects, barnyard grass ([11]; 10 g/a): 5; Herbicidal effects, barnyard grass ([11]; 20 g/a): 5; Herbicidal effects, barnyard grass ([11]; 40 g/a): 5; Herbicidal effects, broad-leaved weeds ([12]; 10 g/a): 5; Herbicidal effects, broad-leaved weeds ([12]; 20 g/a): 5; Herbicidal effects, broad-leaved weeds ([12]; 40 g/a): 5
3 | C=CCSP(=O)(OCCC)SCC(=O)N1CCC(C)CC1 (stereo not shown) [Compound 18] | 4 | 5 | 5 | 5 | 5 | 5 | 0 | 0 | 0 | 4 | 4 | 5 | 4 | 4 | 5 | 4 | 5 | 5 | 0 | 0 | Phytotoxicity on rice ([7]; 40 g/a): 0; Mortality [9]: 76.4%; Herbicidal effects, barnyard grass ([11]; 10 g/a): 5; Herbicidal effects, barnyard grass ([11]; 20 g/a): 5; Herbicidal effects, barnyard grass ([11]; 40 g/a): 5; Herbicidal effects, broad-leaved weeds ([12]; 10 g/a): 5; Herbicidal effects, broad-leaved weeds ([12]; 20 g/a): 5; Herbicidal effects, broad-leaved weeds ([12]; 40 g/a): 5
4 | CCCCSP(=O)(OCC)SCC(=O)N1CCC(C)CC1 (stereo not shown) [Compound 24] | 4 | 5 | 5 | 4 | 5 | 5 | 0 | 0 | 0 | 3 | 4 | 4 | 4 | 4 | 4 | 3 | 4 | 4 | 0 | 0 | Phytotoxicity on rice ([7]; 40 g/a): 0; Mortality [9]: 83.0%; Herbicidal effects, barnyard grass ([11]; 10 g/a): 5; Herbicidal effects, barnyard grass ([11]; 20 g/a): 5; Herbicidal effects, barnyard grass ([11]; 40 g/a): 5; Herbicidal effects, broad-leaved weeds ([12]; 20 g/a): 5; Herbicidal effects, broad-leaved weeds ([12]; 40 g/a): 5; Herbicidal effects, broad-leaved weeds [13]: 4

Source: patent publication US4015974A, “Amido phosphorothiolates” (priority 1972, dated 1977)
